Laboratory results published in patent US8168644B2, “Quinazolinone derivatives as tubulin polymerization inhibitors” (Janssen Pharmaceutica NV, priority 2008, dated 2012).

What was measured:
[1] = tested on: Human colon carcinoma HCT116 cells; assay: Anti-proliferative effect, Alamar Blue assay, HCT116; assay type: cell-based; details: Homo sapiens, HCT-116, 96 h, 4-day incubation, read-out: HCT116 antiproliferative activity pIC50 (converted)
Method: Human colon carcinoma HCT116 cells obtained from the ATCC were cultured in McCoy's 5A medium supplemented with 2 mM L-Glutamine, 50 μg/ml gentamicin and 10% heat inactivated fetal calf serum.
(§1) Resazurin was purchased from Aldrich (Prod. No. 199303). Potassium ferrocyanide, potassium ferricyanide, KH2PO4 and K2HPO4 were purchased from Sigma (Prod. Nos. P9387, P8131, P5655 and P8281, respectively).
(§2) Potassium Phosphate Buffer 0.1 M (PPB) was made as follows: 2.72 gram KH2PO4 and 13.86 gram K2HPO4 were dissolved in 500 ml milli-Q H2O, the pH was adjusted to pH 7.4 and the volume was brought to 1 liter with milli-Q H2O; the buffer was filter sterilised and stored at room temperature. Resazurin stock solution (PPB-A) was prepared fresh by dissolving 45 mg resazurin in 15 ml PBS. 30 mM potassium ferricyanide (PPB-B) was prepared by dissolving 0.987 gram potassium ferricyanide in 100 ml PPB. 30 mM potassium ferrocyanide (PPB-C) was prepared by dissolving 1.266 gram potassium ferrocyanide in 100 ml PPB.
(§3) Mixture of PPB-A, PPB-B and PPB-C was prepared by mixing equal volumes of the respective solutions. Resazurin work solution (herein termed “Alamar Blue” solution) was prepared by diluting said mixture 20× (vol/vol) in PPB and filter sterilising; the Alamar Blue solution could be kept at 4° C. for a maximum of 2 weeks.
(§4) For experiments in 384 wells plates the cells were seeded at a density of 4.5×10^3 cells/ml in Falcon 384-well culture plates (Life Technologies, Merelbeke, Belgium), black with clear bottom, in 45 μl culture medium. Cells were allowed to adhere to plastic for 24 hours. The tested compound was pre-diluted (1/50 in culture medium) and 5 μl pre-diluted compound was added to the wells. Following 4-day incubation, 10 μl of the Alamar Blue solution was added to each well and the cells were further incubated for 4 hours (HCT116) or 24 hours (PC-3) at 37° C. The fluorescence intensity was measured for each well on a Fluorescence plate reader (Fluoroskan, Labsystems, 540 nm excitation and 590 nm emission)
(§5) The antiproliferative activity was calculated as percentage of remaining viable cells in treated versus control (untreated cells) conditions. Within an experiment, the result for each experimental condition is the mean of 3 replicate wells. When appropriate, the experiments were repeated to establish full concentration-response curves. When appropriate, IC50-values (concentration of the drug, needed to reduce cell growth to 50% of the control) were computed using probit analysis for graded data (Finney, D. J., Probit Analyses, 2nd Ed. Chapter 10, Graded Responses, Cambridge University Press, Cambridge 1962). Herein the effects of test compounds are expressed as pIC50 (the negative log value of the IC50-value) (see Table 3).

[2] = tested on: human prostate cancer PC3 cells; assay: Eb1 cellular assay (Eb1 Comet assay); assay type: cell-based; details: 1 hour treatment, LAC = concentration where Eb1 foci absent in at least 50% of treated cells
Method: The Eb1 Comet assay relies on the detection of the Eb1 protein at the plus end of polymerizing microtubules (Mimori-Kiyosue, 2000) using indirect immunofluorescence. Disruption of microtubule dynamics through de-polymerization or stabilization results in a de-localization of Eb1 from the growing microtubule ends and this is visualized by the disappearance of Eb1 containing cytoplasmic foci.
Briefly, human prostate cancer PC3 cells obtained from the American Type Culture Collection were grown in 96-well plates (Greiner, cat. no. 655090) in HAM's F12 medium as recommended by the provider (ATCC). The cells were treated for 1 hour at 37° C. with compounds dissolved in DMSO (0.6% final DMSO concentration). The culture medium was then removed by aspiration and the cells were fixed by adding cold methanol (−20° C.). After a 15 minutes incubation at −20° C., the cells were washed twice with DPBS (Gibco) containing 0.5% Triton X-100. Mouse Eb1 antibody (BD Transduction Laboratories, cat. no. 610534) was added to the cells (1/250 dilution in DPBS containing 1% BSA) and incubated overnight at room temperature. The antibody was subsequently removed and the cells washed twice with DPBS, 0.5% Triton X-100. Secondary goat anti-mouse antibody conjugated to Alexa 488 fluorescent dye (Molecular Probes) was added at a 1/500 dilution in DPBS, 1% BSA and incubated for 1 hour at 37° C. The cells were washed twice with DPBS, 0.5% Triton X-100 and then DPBS containing 0.5% Triton X-100 and 1/5000 Hoechst 33342 (Molecular Probes) was added. Microscopy based Eb1 foci visualization was carried out using an IN Cell Analyser 1000 (Amersham Biosciences) using a 20× objective. Compound dependent microtubule disruption was visually determined by the disappearance in Eb1 foci. The lowest active concentration (LAC) was determined as the concentration where Eb1 foci were absent in at least 50% of the treated cells. Herein the effects of test compounds are expressed as pLAC (the negative log value of the LAC-value) (see Table 3).

[3] = tested on: Human prostate cancer PC-3 cells; assay: Anti-proliferative effect, Alamar Blue assay, PC-3; assay type: cell-based; details: Homo sapiens, 96 h, 4-day incubation, read-out: PC3 antiproliferative activity pIC50 (converted)
Method: Human prostate cancer PC-3 cells obtained from the ATCC were cultured in HAM'S F12 medium supplemented with 1 mM Sodium Pyruvate, 1.5 g/L Sodium Bicarbonate, 50 μg/ml gentamicin, non-essential amino acids and 10% fetal calf serum.
as §1, §2, §3, §4, §5

α-β-Tubulin = α-β-Tubulin polymerization assay; assay type: biochemical; details: inhibition of polymerization at 20 μM and 5 μM, reported as score
Method: The tubulin polymerization assay is an adaptation of an assay originally described by Bonne, D. et al. (J. Biol. Chem., 1985, 260:2819-25). The assay kit was purchased from Cytoskeleton, Inc. (catalogue number BK011) and the assay was performed as described by the supplier with the following modifications. The assay was run in a 384-well black Proxiplate (Perkin Elmer) and volumes were adapted accordingly. The reactions were carried out in a final volume of 10 μl. Compounds were added to 25 μl of the reaction mix in 96-well PP plates (Corning) on ice and 10 μl of this mixture was dispensed into duplicates of the 384-well Proxiplates pre-warmed to 37° C. in a Fluoroskan Ascent plate reader (Thermo Scientific). Fluorescence measurements were taken every minute for one hour. The maximum slope of each well was determined (linear regression through 4 consecutive points) and polymerization was calculated as a percentage of polymerization observed in the absence of compound. Compounds were first measured at a concentration of 20 μM and then at 5 μM for those showing more than 50% inhibition at 20 μM as compared to the polymerization observed in the absence of compound. Results are reported in Table F-2 as scores defined as: a compound showing 0 to 50% inhibition at 20 μM is reported as score 1; a compound showing more than 50% inhibition at 5 μM is reported as score 3.

Row | IC50 [1] [nM] | melting point [°C] | IC50 [3] [nM] | SMILES | Eb1 pLAC [2] | tubulin polymerization score (α-β-Tubulin)
1 | 39.8 | 95 | 79.4 | CCN1Cc2ccc([C@](C)(C#N)Cc3nc(OC)cc(OC)n3)cc2NC1=O (single isomer, unassigned) [Compound 1] | >7.5 | –
2 | 794 | 210 | 501 | CN1Cc2ccc(C(C)(C#N)Cc3ccccc3)cc2NC1=O (centres unmarked) [Compound 7] | 6.5 | 3 (a compound showing more than 50% inhibition at 5 μM is reported as score 3)
3 | 200 | 83 | 501 | CCN1Cc2ccc(C(C)(C#N)Cc3cccc(I)c3)cc2NC1=O (centres unmarked) [Compound 8] | 6.5 | 3 (a compound showing more than 50% inhibition at 5 μM is reported as score 3)
4 | > 10000 | 152 | > 10000 | CCN1Cc2ccc([C@@](C)(C#N)Cc3cccc(C#N)c3)cc2NC1=O [Compound 5] | – | 1 (a compound showing 0 to 50% inhibition at 20 μM is reported as score 1)

The remaining lines, values behind:

Row | SMILES | IC50 [1] [nM] | melting point [°C] | IC50 [3] [nM] | Eb1 pLAC [2] | tubulin polymerization score (α-β-Tubulin)
5 | CCN1Cc2ccc([C@](C)(C#N)Cc3cccc(C#N)c3)cc2NC1=O [Compound 6] | 50.1 | 152 | 100 | 7 | 3 (a compound showing more than 50% inhibition at 5 μM is reported as score 3)
6 | C#Cc1cccc(CC(C)(C#N)c2ccc3c(c2)NC(=O)N(CC)C3)c1 (centres unmarked) [Compound 10] | 158 | 84.4 to 102.4 | 316 | 7 | 3 (a compound showing more than 50% inhibition at 5 μM is reported as score 3)
7 | CCN1Cc2ccc([C@@](C)(C#N)Cc3ccccc3)cc2NC1=O [Compound 3] | > 10000 | 124 | > 10000 | – | 1 (a compound showing 0 to 50% inhibition at 20 μM is reported as score 1)
